Laboratory results published in ChEMBL document CHEMBL3407364, “Synthesis and antitumor activity of ring A modified 11-keto-β-boswellic acid derivatives” (Eur J Med Chem, 2015).
Active and inactive are the calls of the source. The rule behind the calls is not given here.

Tests used:
Assay type in all cases: functional, cell-based
[1] = system: HT-29; assay: Cytotoxicity against human HT-29 cells assessed as cell survival after 96 hrs by SRB assay; conditions: HT-29, 96 h
[2] = system: A2780; assay: Cytotoxicity against human A2780 cells assessed as cell survival after 96 hrs by SRB assay; conditions: A2780, 96 h
[3] = Cytotoxicity against human DLD1 cells assessed as cell survival after 96 hrs by SRB assay; conditions: DLD-1, 96 h
[4] = Cytotoxicity against human A253 cells assessed as cell survival after 96 hrs by SRB assay; conditions: A253, 96 h
[5] = Cytotoxicity against human HCT8 cells assessed as cell survival after 96 hrs by SRB assay; conditions: HCT-8, 96 h
[6] = system: A2780; assay: Induction of apoptosis in human A2780 cells assessed as DNA fragmentation at IC90 after 24 hrs by DNA-laddering assay
[7] = system: A2780; assay: Induction of apoptosis in human A2780 cells assessed as intact cell membrane at IC90 after 24 hrs by trypan blue exclusion assay

Row | Structure (SMILES) | IC50 [1] | IC50 [2] | IC50 [3] | IC50 [4] | IC50 [5] | Activity [6] | Activity [7]
1 | CC(=O)O[C@@H]1CC[C@@]2(C)[C@@H](CC[C@]3(C)[C@@H]2C(=O)C=C2[C@@H]4[C@@H](C)[C@H](C)CC[C@]4(C)CC[C@]23C)[C@@]1(C)C(=O)O [AKBA] | 19.4 µM | 14.1 µM | 20.9 µM | 16.9 µM | 17.5 µM | – | –
2 | COC(=O)[C@]1(C)[C@@H]2CC[C@]3(C)[C@H](C(=O)C=C4[C@@H]5[C@@H](C)[C@H](C)CC[C@]5(C)CC[C@]43C)[C@@]2(C)CC1(O)C(=O)O (some centres not stated) | 51.4 µM | 53.6 µM | 56.1 µM | 54.9 µM | 46.9 µM | – | –
3 | C[C@H]1[C@H](C)CC[C@]2(C)CC[C@]3(C)C(=CC(=O)[C@@H]4[C@@]5(C)CCC(=O)[C@@H](C)[C@@H]5CC[C@]43C)[C@H]12 | 28.2 µM | 23.5 µM | 57.3 µM | 39.4 µM | 30.2 µM | – | –
4 | C[C@H]1[C@H](C)CC[C@]2(C)CC[C@]3(C)C(=CC=C4[C@@]5(C)CC[C@@H](O)[C@](C)(CO)[C@@H]5CC[C@]43C)[C@H]12 | 23.9 µM | 43.2 µM | 19.5 µM | 18.1 µM | 31.3 µM | – | –
5 | COC(=O)[C@@]1(C)C=CC[C@@]2(C)[C@H]1CC[C@]1(C)[C@@H]2C(=O)C=C2[C@@H]3[C@@H](C)[C@H](C)CC[C@]3(C)CC[C@]21C | 30.2 µM | 40.1 µM | 32.9 µM | 40.2 µM | 39.4 µM | – | –
6 | COC(=O)[C@@]1(C)/C(=N/O)CC[C@@]2(C)[C@H]1CC[C@]1(C)[C@@H]2C(=O)C=C2[C@@H]3[C@@H](C)[C@H](C)CC[C@]3(C)CC[C@]21C | 15.4 µM | 18 µM | 13.7 µM | 15.5 µM | 16.4 µM | – | –
7 | C[C@H]1[C@H](C)CC[C@]2(C)CC[C@]3(C)C(=CC(=O)[C@@H]4[C@@]5(C)CC[C@@H](O)[C@](C)(C(=O)O)[C@@H]5CC[C@]43C)[C@H]12 [11-KETO BOSWELLIC ACID] | 71.9 µM | 37.9 µM | 57.7 µM | 45.9 µM | 44.6 µM | – | –
8 | COC(=O)[C@@]1(C)C(=O)C(O)=C[C@]2(C)[C@H]3C(=O)C=C4[C@@H]5[C@@H](C)[C@H](C)CC[C@]5(C)CC[C@@]4(C)[C@]3(C)CC[C@@H]12 | 29.9 µM | 41.1 µM | 34.1 µM | 42.3 µM | 39.7 µM | – | –
9 | COC(=O)[C@@]1(C)[C@@H](C(=O)O)CC[C@@]2(C)[C@H]1CC[C@]1(C)[C@@H]2C(=O)C=C2[C@@H]3[C@@H](C)[C@H](C)CC[C@]3(C)CC[C@]21C | 34.1 µM | 35.4 µM | 42.7 µM | 38.2 µM | 41.7 µM | – | –
10 | C[C@H]1[C@H](C)CC[C@]2(C)CC[C@]3(C)C(=CC(=O)[C@@H]4[C@@]5(C)CC[C@H](N)[C@](C)(C(=O)O)[C@@H]5CC[C@]43C)[C@H]12 | 8.7 µM | 7.3 µM | 9.9 µM | 5.6 µM | 12.5 µM | Active | Active
